{"source": "patent US4093720A", "about": "“Novel-17-spirosultines their corresponding hydroxy acids and compositions thereof” (Roussel Uclaf, priority 1976, dated 1978)", "key": {"androgen receptors": {"biological_target": "T1, androgen receptors (Rattus norvegicus, UniProt P15207)", "T1 construct": "the prostate was removed from male rats castrated 24 hours earlier and was homogenized in a buffer; from tissue; host or cells: prostate cytosol (105,000g supernatant) of male rats castrated 24 hours earlier", "T1 sequence (P15207 1-902)": "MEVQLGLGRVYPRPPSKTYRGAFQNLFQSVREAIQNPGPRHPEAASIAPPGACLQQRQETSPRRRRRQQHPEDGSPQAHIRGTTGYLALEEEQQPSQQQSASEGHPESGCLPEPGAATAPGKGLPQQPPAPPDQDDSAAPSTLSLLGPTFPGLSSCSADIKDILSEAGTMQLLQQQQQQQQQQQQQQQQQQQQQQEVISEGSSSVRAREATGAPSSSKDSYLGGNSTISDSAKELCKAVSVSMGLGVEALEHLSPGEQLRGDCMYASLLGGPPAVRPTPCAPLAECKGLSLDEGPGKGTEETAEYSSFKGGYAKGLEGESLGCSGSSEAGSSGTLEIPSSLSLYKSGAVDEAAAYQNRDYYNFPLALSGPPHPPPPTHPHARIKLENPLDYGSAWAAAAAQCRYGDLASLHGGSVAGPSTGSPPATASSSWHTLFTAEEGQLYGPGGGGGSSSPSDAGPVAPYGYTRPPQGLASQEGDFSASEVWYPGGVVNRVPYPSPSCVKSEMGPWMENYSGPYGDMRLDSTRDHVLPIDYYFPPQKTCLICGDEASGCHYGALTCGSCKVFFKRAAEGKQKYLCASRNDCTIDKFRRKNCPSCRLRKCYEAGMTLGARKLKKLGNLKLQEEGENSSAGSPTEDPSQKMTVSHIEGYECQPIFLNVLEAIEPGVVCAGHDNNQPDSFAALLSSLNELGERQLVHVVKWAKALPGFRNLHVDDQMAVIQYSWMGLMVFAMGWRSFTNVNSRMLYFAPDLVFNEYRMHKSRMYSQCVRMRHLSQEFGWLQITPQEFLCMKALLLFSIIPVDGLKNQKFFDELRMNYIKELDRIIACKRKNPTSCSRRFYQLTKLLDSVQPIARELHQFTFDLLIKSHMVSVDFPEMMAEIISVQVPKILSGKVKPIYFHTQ", "experiment": "Affinity for androgenic receptors (hormonal receptor test, rat prostate cytosol, tritiated product R)", "type": "binding, rats", "details": "for affinity for androgen receptors (in words): conclusion from Table II; for RLA (relative affinity = 100 × CT/CX): prostate cytosol of castrated male rats, tritiated 17α-methyl-Δ4,9,11-estratriene-17β-ol-3-one, 0° C, 2 hours, testosterone = 100", "protocol": "The test used was the hormonal receptor test described by Raynaud et al [J. Ster. Biochem., Vol. 6 (1975), p. 615-622] in which the prostate was removed from male rats castrated 24 hours earlier and was homogenized in a buffer: 10 millimole tromethamine, saccharose 0.25M, HCl for pH of 7.4. The homogenate was centrifuged at 105,000g for one hour and the surnageant liquid or \"cytosol\" was then adjusted to obtain a dilution of 1/5 (weight/volume). […] At the end of 2 hours, the radioactivity of tritiated product tied to the receptor was determined by the adsorption technique of carbondextran (1.25% to 0.625%).\nB/T max. is the percentage of tritiated product R bound when no product was added and B/T min. is the percentage of tritiated product R bound when the mazimum quantity of cold product R is added. The intersections of line I50 and the curves permit the determination of the CT and CX values."}, "[1]": {"tested_on": "activity of 1 μg/kg of aldosterone monoacetate", "experiment": "Antialdosterone activity in surrenalectomized rats", "type": "in vivo", "details": "male Sprague-Dawley surrenalectomized rats; oral dose 5 mg/kg; 1 μg/kg aldosterone monoacetate s.c.; 4 hours urine collection", "protocol": "Male rats of the Sprague-Dawley strain weighing about 180 g were surrenalectomized and at that moment, the rats received with drinking water a physiological serum. […] At the end of 47 hours, the rats received orally either the B isomer of (17R) 6β, 7β-methylene-2'-oxidospiro-(Δ^4 -androstene-17,5'-[1',2']-oxathiolane)-3-one (product A), the B isomer of (17R) 6α, 7α-methylene-2'-oxidospiro-(Δ^4 -androstene-17,5'-[1',2']-oxathiolane)-3-one (product B) or the B isomer of (17R) 7α-methyl-2'-oxidospiro-(Δ^4 -androstene-17,5'-[1',2']-oxathiolane)-3-one (product C) in the form of a solution or suspension in 0.25% carboxymethylcellulose. One hour after the said oral administration, the animals received a hydrosaline overdose by intraperitoned administration of 5 ml of a […] physiological serum per 100 g of body weight and 1 μg/kg of a 2.5% alcoholic solution of aldosterone monoacetate by subcutaneous administration. The animals were placed in diuresis cages without food or drink for 4 hours and at the end of 4 hours, a forced miction was caused by pressure on the bladder. The volume of urine was brought to 50 ml and the amount of sodium and potassium was determined with an autoanalyser."}}}
{"smiles": "C[C@]12CCC(=O)C=C1[C@@H]1C[C@@H]1[C@@H]1[C@@H]2CC[C@@]2(C)[C@H]1CC[C@@]21CCS(=O)O1", "note": "(single isomer, unassigned) [product A]", "values": [{"measurement": "affinity for androgen receptors (in words)", "setting": "androgen receptors", "value": "little or no affinity"}, {"measurement": "RLA (relative affinity = 100 × CT/CX)", "setting": "androgen receptors", "value": 0}, {"measurement": "% inhibition of the activity of aldosterone monoacetate against the urinary sodium/potassium ratio", "setting": "[1]", "value": 25, "unit": "%"}]}
{"smiles": "C[C@]12CCC(=O)C=C1[C@H]1C[C@H]1[C@@H]1[C@@H]2CC[C@@]2(C)[C@H]1CC[C@@]21CCS(=O)O1", "note": "(single isomer, unassigned) [product B]", "values": [{"measurement": "% inhibition of the activity of aldosterone monoacetate against the urinary sodium/potassium ratio", "setting": "[1]", "value": 19, "unit": "%"}]}
{"smiles": "C[C@@H]1CC2=CC(=O)CC[C@]2(C)[C@H]2CC[C@@]3(C)[C@@H](CC[C@@]34CCS(=O)O4)[C@H]12", "note": "(single isomer, unassigned) [product C]", "values": [{"measurement": "affinity for androgen receptors (in words)", "setting": "androgen receptors", "value": "little or no affinity"}, {"measurement": "RLA (relative affinity = 100 × CT/CX)", "setting": "androgen receptors", "value": 3.6}, {"measurement": "% inhibition of the activity of aldosterone monoacetate against the urinary sodium/potassium ratio", "setting": "[1]", "value": 22, "unit": "%"}]}
